IC50 and Ki data for 40 molecules are collected here from ChEMBL document CHEMBL1130666, “Benzimidazole derivatives as arginine mimetics in 1,4-benzodiazepine nonpeptide vitronectin receptor (alpha v beta 3) antagonists” (Bioorg Med Chem Lett, 1998).

Experiment [1] concerns the target T1, Integrin alpha-V/beta-3 (Homo sapiens, UniProt P05106+P06756). Put plainly: Effect against adhesion of HEK 293 cells transfected with human alpha-v beta-3 to vitronectin coated plates. It is filed as functional, cell-based, HEK293.
Experiment [2] concerns the target T1, Integrin alpha-V/beta-3. In words: Binding affinity evaluated against vitronectin receptor (alphaV-beta3) receptor. It is filed as protein-complex assay.
Experiment [3] addresses Integrin alpha-IIb/beta-3 (Homo sapiens, UniProt P05106+P08514). In words: Affinity for alphaIIb-beta3 receptor. It is filed as protein-complex assay.

One may read the IC50 as the concentration at which inhibition is half-maximal. A higher IC50 goes with lower potency. As usually defined, the Ki is a dissociation constant, usually derived from enzyme kinetics or from competition with a known ligand. A lower Ki goes with higher affinity.

A value given as a limit tells only on which side of the number the result lay.

T1 sequence (P05106 27-788 limits assumed): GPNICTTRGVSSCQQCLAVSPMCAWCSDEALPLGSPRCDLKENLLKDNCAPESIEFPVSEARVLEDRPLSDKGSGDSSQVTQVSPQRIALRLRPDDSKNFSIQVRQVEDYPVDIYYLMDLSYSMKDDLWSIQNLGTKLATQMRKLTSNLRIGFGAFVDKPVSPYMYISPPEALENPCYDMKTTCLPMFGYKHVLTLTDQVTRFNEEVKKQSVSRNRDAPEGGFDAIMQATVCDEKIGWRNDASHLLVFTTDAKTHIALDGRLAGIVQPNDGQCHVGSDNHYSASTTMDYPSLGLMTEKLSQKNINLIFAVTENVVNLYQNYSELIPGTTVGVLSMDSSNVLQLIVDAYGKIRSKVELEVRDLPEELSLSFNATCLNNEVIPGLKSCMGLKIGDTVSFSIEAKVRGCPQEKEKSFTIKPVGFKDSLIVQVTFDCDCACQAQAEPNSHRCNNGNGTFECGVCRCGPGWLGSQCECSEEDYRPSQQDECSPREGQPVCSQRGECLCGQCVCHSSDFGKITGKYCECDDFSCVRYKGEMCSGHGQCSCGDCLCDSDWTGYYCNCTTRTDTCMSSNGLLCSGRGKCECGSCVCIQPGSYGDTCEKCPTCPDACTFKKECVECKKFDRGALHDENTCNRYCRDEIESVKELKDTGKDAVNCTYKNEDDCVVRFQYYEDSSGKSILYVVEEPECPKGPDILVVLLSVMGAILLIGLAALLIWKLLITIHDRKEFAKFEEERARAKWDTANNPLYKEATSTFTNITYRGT
T1 sequence (P06756 31-889 limits assumed): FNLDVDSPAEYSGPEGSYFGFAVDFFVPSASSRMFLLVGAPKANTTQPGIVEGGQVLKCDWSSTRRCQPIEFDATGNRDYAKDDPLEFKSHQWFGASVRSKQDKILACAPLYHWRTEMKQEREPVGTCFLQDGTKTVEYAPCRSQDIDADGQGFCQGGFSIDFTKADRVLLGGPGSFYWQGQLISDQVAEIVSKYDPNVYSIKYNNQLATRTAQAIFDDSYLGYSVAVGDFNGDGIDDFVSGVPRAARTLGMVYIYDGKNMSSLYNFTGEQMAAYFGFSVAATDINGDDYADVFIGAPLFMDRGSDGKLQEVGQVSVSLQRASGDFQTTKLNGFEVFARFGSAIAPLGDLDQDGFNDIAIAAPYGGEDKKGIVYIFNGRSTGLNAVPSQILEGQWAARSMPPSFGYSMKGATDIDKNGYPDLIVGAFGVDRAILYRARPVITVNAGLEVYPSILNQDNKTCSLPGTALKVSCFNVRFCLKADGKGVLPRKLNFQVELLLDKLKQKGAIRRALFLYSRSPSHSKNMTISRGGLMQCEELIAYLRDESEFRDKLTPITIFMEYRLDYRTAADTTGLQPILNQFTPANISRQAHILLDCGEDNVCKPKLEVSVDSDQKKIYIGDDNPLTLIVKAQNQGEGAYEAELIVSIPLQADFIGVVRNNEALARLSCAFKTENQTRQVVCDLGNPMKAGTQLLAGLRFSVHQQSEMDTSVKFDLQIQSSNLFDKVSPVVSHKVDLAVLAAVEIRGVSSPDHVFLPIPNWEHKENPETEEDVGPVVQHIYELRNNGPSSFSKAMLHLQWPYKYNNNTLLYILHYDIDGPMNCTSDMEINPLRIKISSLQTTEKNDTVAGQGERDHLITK
T1 sequence (P06756 891-1048 limits assumed): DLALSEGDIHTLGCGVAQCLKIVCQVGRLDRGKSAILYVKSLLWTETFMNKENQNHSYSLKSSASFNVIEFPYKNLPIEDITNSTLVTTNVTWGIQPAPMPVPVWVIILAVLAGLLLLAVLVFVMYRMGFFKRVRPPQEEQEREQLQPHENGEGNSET
Chain of Integrin alpha-IIb/beta-3 (P05106 27-788 limits assumed): as the sequence (P05106 27-788 limits assumed) above
Chain of Integrin alpha-IIb/beta-3 (P08514 32-887 limits assumed): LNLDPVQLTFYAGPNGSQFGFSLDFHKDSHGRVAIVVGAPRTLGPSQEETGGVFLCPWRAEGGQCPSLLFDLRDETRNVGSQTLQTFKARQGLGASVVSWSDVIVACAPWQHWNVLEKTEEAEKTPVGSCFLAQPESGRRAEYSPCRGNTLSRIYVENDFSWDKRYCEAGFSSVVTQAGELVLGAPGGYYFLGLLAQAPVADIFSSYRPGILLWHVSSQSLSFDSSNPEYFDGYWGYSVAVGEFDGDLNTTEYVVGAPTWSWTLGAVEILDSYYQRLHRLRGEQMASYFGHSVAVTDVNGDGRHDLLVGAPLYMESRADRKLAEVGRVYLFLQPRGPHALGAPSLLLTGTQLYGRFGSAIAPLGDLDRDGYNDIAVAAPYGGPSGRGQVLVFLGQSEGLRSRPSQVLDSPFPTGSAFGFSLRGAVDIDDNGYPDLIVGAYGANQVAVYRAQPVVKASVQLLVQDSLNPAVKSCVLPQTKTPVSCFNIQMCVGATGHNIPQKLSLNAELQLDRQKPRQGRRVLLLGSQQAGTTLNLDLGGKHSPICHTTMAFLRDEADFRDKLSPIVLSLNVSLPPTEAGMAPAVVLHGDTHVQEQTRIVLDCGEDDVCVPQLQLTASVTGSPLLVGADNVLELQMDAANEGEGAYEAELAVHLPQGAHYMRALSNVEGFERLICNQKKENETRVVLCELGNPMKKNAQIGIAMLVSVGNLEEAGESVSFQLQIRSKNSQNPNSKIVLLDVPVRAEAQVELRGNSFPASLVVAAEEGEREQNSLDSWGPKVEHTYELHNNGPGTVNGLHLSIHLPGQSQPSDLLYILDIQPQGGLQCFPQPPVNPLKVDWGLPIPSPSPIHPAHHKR
Chain of Integrin alpha-IIb/beta-3 (P08514 891-1039 limits assumed): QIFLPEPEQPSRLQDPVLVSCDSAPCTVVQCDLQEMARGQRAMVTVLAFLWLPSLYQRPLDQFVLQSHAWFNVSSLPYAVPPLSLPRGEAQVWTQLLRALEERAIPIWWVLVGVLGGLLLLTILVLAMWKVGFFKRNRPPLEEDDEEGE

On to `O=C(O)C[C@@H]1Nc2ccc(C(=O)NCc3nc4ccccc4[nH]3)cc2CNC1=O`, for which the IC50 in experiment [1] worked out at 5 µM. Further, the affinity in experiment [2] corresponds to a Ki of 0.03 µM.

In turn, `CN1Cc2cc(C(=O)N(CC#N)Cc3nc4ccccc4[nH]3)ccc2N[C@@H](CC(=O)O)C1=O` had an IC50 in experiment [1] of 0.81 µM. In experiment [2], this molecule registered a Ki of 0.004 µM.

In experiment [1], `CN(Cc1nc2c(N)cccc2[nH]1)C(=O)c1ccc2c(c1)CN(C)C(=O)[C@H](CC(=O)O)N2` came in with an IC50 of 0.81 µM. Further, the affinity in experiment [2] corresponds to a Ki of 0.0055 µM. For `CN(Cc1nc2c([nH]1)CCCC2)C(=O)c1ccc2c(c1)CN(C)C(=O)[C@H](CC(=O)O)N2`, the Ki in experiment [2] was 0.005 µM; in experiment [3], 2.75 µM.

For `Cc1cccc2[nH]c(CN(C)C(=O)c3ccc4c(c3)CN(C)C(=O)[C@H](CC(=O)O)N4)nc12`, the IC50 in experiment [1] was found to be 0.48 µM. Further, the Ki in experiment [2] was 0.002 µM. For `O=C(O)C[C@@H]1Nc2ccc(C(=O)NCc3nc4ccccc4[nH]3)cc2CN(Cc2ccccc2)C1=O` the same measures were 1.5 µM and 0.015 µM. For `CN(Cc1nc2ccccc2[nH]1)C(=O)c1ccc2c(c1)CN(CCc1ccccc1)C(=O)[C@H](CC(=O)O)N2` the same measures were 0.09 µM and 0.004 µM. In experiment [2], `COc1ccc(OC)c2[nH]c(CN(C)C(=O)c3ccc4c(c3)CN(C)C(=O)[C@H](CC(=O)O)N4)nc12` came in with a Ki of 1.3 µM. In experiment [1], `CN(Cc1nc2ccc(C(F)(F)F)cc2[nH]1)C(=O)c1ccc2c(c1)CN(C)C(=O)[C@H](CC(=O)O)N2` returned an IC50 of 1 µM. In experiment [2], this molecule came in with a Ki of 0.0085 µM. For `CN(Cc1nc2cc(F)c(F)cc2[nH]1)C(=O)c1ccc2c(c1)CN(C)C(=O)[C@H](CC(=O)O)N2`, in that order: 0.54 µM and 0.0025 µM. For `CN1Cc2cc(C(=O)N(Cc3nc4ccccc4[nH]3)Cc3nc4ccccc4[nH]3)ccc2N[C@@H](CC(=O)O)C1=O` the same measures were 0.48 µM and 0.0025 µM. In experiment [1], `CN(Cc1nc2cc3c(cc2[nH]1)OCO3)C(=O)c1ccc2c(c1)CN(C)C(=O)[C@H](CC(=O)O)N2` returned an IC50 of 0.69 µM. The Ki in experiment [2] worked out at 0.009 µM.

`CN1Cc2cc(C(=O)N(Cc3nc4ccccc4[nH]3)C3CCCCC3)ccc2N[C@@H](CC(=O)O)C1=O`: the inhibition constant Ki in experiment [2] came out at 0.75 µM. As for `CN(Cc1nc2ccccc2n1C)C(=O)c1ccc2c(c1)CN(C)C(=O)[C@H](CC(=O)O)N2`, the Ki worked out at 0.07 µM in experiment [2] and 28 µM in experiment [3]. On to `COc1cc2nc(CN(C)C(=O)c3ccc4c(c3)CN(C)C(=O)[C@H](CC(=O)O)N4)[nH]c2cc1OC`, for which, in experiment [2], affinity was put at a Ki of 0.18 µM.

`O=C(O)C[C@@H]1Nc2ccc(C(=O)NCc3nc4ccccc4[nH]3)cc2CN(CCc2cccnc2)C1=O` yielded an IC50 in experiment [1] of 0.35 µM. Besides, the Ki in experiment [2] came out at 0.01 µM. For `CN(Cc1nc2c([N+](=O)[O-])cccc2[nH]1)C(=O)c1ccc2c(c1)CN(C)C(=O)[C@H](CC(=O)O)N2`, in that order: 1.1 µM and 0.013 µM. For `CCCCN(Cc1nc2ccccc2[nH]1)C(=O)c1ccc2c(c1)CN(C)C(=O)[C@H](CC(=O)O)N2`, in that order: 0.52 µM and 0.0035 µM. For `CN(Cc1nc2ccccc2[nH]1)C(=O)c1ccc2c(c1)CNC(=O)[C@H](CC(=O)O)N2` the same measures were 0.5 µM and 0.0065 µM.

As to `CN1Cc2cc(C(=O)N(CCc3ccccc3)Cc3nc4ccccc4[nH]3)ccc2N[C@@H](CC(=O)O)C1=O`, the IC50 in experiment [1] was determined as 0.28 µM. The molecule further gave a Ki in experiment [2] of 0.005 µM.

Molecule `CN1Cc2cc(C(=O)NCc3nc4ccccc4[nH]3)ccc2N[C@@H](CC(=O)O)C1=O` registered an IC50 in experiment [1] of 1.65 µM. In turn, `COCCN1Cc2cc(C(=O)NCc3nc4ccccc4[nH]3)ccc2N[C@@H](CC(=O)O)C1=O` (racemic) came in with an IC50 in experiment [1] of 3 µM. In experiment [2], the Ki was determined as 0.028 µM. In experiment [1], `CN(Cc1nc2ccccc2[nH]1)C(=O)c1ccc2c(c1)CN(CCc1ccc3c(c1)OCO3)C(=O)[C@H](CC(=O)O)N2` (racemic) came in with an IC50 of 0.25 µM. This molecule also came in with a Ki in experiment [2] of 0.006 µM.

In experiment [1], `O=C(O)C[C@@H]1Nc2ccc(C(=O)NCc3nc4ccccc4[nH]3)cc2CN(CCc2ccc3c(c2)OCO3)C1=O` (racemic) showed an IC50 of 0.67 µM. In addition, the affinity in experiment [2], expressed as Ki, was 0.0065 µM. For the molecule `CN(Cc1nc2ccccc2[nH]1)C(=O)c1ccc2c(c1)CN(CCC(C)(C)C)C(=O)[C@H](CC(=O)O)N2` (racemic), in experiment [1], the midpoint of inhibition, the IC50, lay at 0.18 µM. In experiment [2], this molecule returned a Ki of 0.0016 µM. For `CC(C)N1Cc2cc(C(=O)NCc3nc4ccccc4[nH]3)ccc2N[C@@H](CC(=O)O)C1=O` (racemic) the same measures were 5.1 µM and 0.02 µM. For `CN(Cc1nc2ccc([N+](=O)[O-])cc2[nH]1)C(=O)c1ccc2c(c1)CN(C)C(=O)[C@H](CC(=O)O)N2` (racemic) the same measures were 3 µM and 0.014 µM.

Consider `CN1Cc2cc(C(=O)NCc3ncc[nH]3)ccc2N[C@@H](CC(=O)O)C1=O` (racemic), for which the Ki worked out at 2.9 µM in experiment [2] and 47 µM in experiment [3]. For `CN(Cc1nc2ccccc2o1)C(=O)c1ccc2c(c1)CN(C)C(=O)[C@H](CC(=O)O)N2` (racemic) the same measures were 1.1 µM and 30 µM. In experiment [1], `CN(Cc1nc2cc(C#N)ccc2[nH]1)C(=O)c1ccc2c(c1)CN(C)C(=O)[C@H](CC(=O)O)N2` (racemic) had an IC50 of 0.69 µM. Besides, the affinity in experiment [2], expressed as Ki, was 0.015 µM. For `COCCN1Cc2cc(C(=O)N(C)Cc3nc4ccccc4[nH]3)ccc2N[C@@H](CC(=O)O)C1=O` (racemic), in that order: 0.34 µM and 0.003 µM. `O=C(O)C[C@@H]1Nc2ccc(C(=O)NCc3nc4ccccc4[nH]3)cc2CN(CC(=O)O)C1=O` (racemic) had an IC50 in experiment [1] of 4.5 µM. In experiment [2], this molecule gave a Ki of 0.027 µM. For `CN(Cc1nc2ccc(N)cc2[nH]1)C(=O)c1ccc2c(c1)CN(C)C(=O)[C@H](CC(=O)O)N2` (racemic), in that order: 0.9 µM and 0.019 µM. For `O=C(O)C[C@@H]1Nc2ccc(C(=O)NCc3nc4ccccc4[nH]3)cc2CN(CCc2ccccc2)C1=O` (racemic), in that order: 0.75 µM and 0.009 µM.

Take `CN(Cc1nc2ccccc2s1)C(=O)c1ccc2c(c1)CN(C)C(=O)[C@H](CC(=O)O)N2` (racemic): the Ki in experiment [2] came to 0.48 µM; in experiment [3], 29 µM. For `CN1Cc2cc(C(=O)NCc3cc4ccccc4[nH]3)ccc2N[C@@H](CC(=O)O)C1=O` (racemic), in that order: 0.11 µM and more than 50 µM. Molecule `CN(Cc1nc2cc(Cl)ccc2[nH]1)C(=O)c1ccc2c(c1)CN(C)C(=O)[C@H](CC(=O)O)N2` (racemic) had a half-inhibitory concentration (IC50) in experiment [1] of 0.9 µM. The molecule also yielded a Ki in experiment [2] of 0.011 µM. `CN(Cc1nc2ccccc2[nH]1)C(=O)c1ccc2c(c1)CN(Cc1ccccc1)C(=O)[C@H](CC(=O)O)N2` (racemic) yielded an IC50 in experiment [1] of 0.51 µM. The Ki in experiment [2] was found to be 0.0019 µM. For `CC(C)(C)CCN1Cc2cc(C(=O)NCc3nc4ccccc4[nH]3)ccc2N[C@@H](CC(=O)O)C1=O` (racemic) the same measures were 1.4 µM and 0.015 µM. For `CN1Cc2cc(C(=O)NCc3nc4ccccc4[nH]3)ccc2N[C@@H](CC(=O)O)C1=O` (racemic) the same measures were 3.6 µM and 0.024 µM.
